Laboratory results taken from patent publication US20120302616A1, “METHOD OF TREATMENT OF OBSESSIVE COMPULSIVE DISORDER WITH ONDANSETRON” (priority 2010, published 2012).
Where “and” joins values, the source holds several entries; their conditions need not be identical. Equal values may be shown once.

Test system: patients with treatment-resistant OCD
Test: Ondansetron augmentation of SRI therapy, single-blind 12-week study with 4-week discontinuation follow-up (YBOCS, CGI)
Assay type: in vivo, human
Design: reduction in CGI-I from baseline: concentration or dose not given beside the values
Details: for CGI-I Score / YBOCS % Reduction / YBOCS Score: individual patients (21); for Compulsion Subdomain YBOCS % Reduction / Obsession Subdomain YBOCS % Reduction / Compulsion Subdomain YBOCS Score / Obsession Subdomain YBOCS Score: individual patients
Protocol: Twenty-one patients with a DSM-IV diagnosis of treatment-resistant OCD, under stable treatment with SRIs approved by the FDA for OCD therapy, received 12 weeks of single-blind ondansetron augmentation initiated at a dose of 0.25 mg twice daily for 2 weeks, and titrated to 0.5 mg twice daily for 10 weeks. Patients were rated every two weeks using the Yale Brown Obsessive Compulsive Scale (YBOCS) and Clinical Global Impressions Scale (CGI). Treatment-resistant patients were defined as having completed an adequate trial of SRIs at a moderate to high dose for at least 12 weeks and still having a YBOCS severity of >24, and CGI-Severity of ≧4. Treatment response was defined as an additional 25% reduction in YBOCS score from YBOCS score at the initiation of ondansetron augmentation, an end of treatment (EOT) period YBOCS of ≦24, and CGI-Improvement (CGI-I) of ≦2. Additionally, ondansetron was discontinued after 12 weeks and patients were followed up for another 4 weeks for relapse in YBOCs symptoms. The obsession and compulsion subdomains of the Y-BOCS were also analyzed to determine whether ondansetron would selectively affect one subdomain or the other.

[1] = Week 14 (after discontinuation), Non-Responders
[2] = Week 14 (after discontinuation), Responders
[3] = Week 16 (after discontinuation), Non-Responders
[4] = Week 16 (after discontinuation), Responders

`Cc1nccn1CC1CCc2c(c3ccccc3n2C)C1=O` (stereo not shown) [ondansetron] was tested, and the tolerability of treatment (0.25 mg twice daily 2 weeks, then 0.5 mg twice daily 10 weeks) was “well tolerated”, the “CGI-I Score” value (6 Weeks) was 2 (7×) and 3 (2×) and 5 (6×) and 1 (3×) and 4 (3×) and the “YBOCS % Reduction” value (6 Weeks) was 16.00% and 0.00% (3×) and 5.00%. For the same molecule, the “YBOCS Score” value (6 Weeks) was 22 and 19 (3×) and 28 and 21 (2×) and 27 and 24 (2×) and 14 and 29 (3×) and 38 and 32 and 17 and 25 and 16 and 26 and 31, the “Compulsion Subdomain YBOCS % Reduction” value (6 weeks, Non-Responders) was −7.14% and 5.00% and −13.33% and −15.38% and 13.33% and 14.29% and 0.00% and 12.50% and −16.67% and the “Obsession Subdomain YBOCS % Reduction” value (6 weeks, Non-Responders) was 16.67% and 0.00% (3×) and 5.00% and −7.69% and −6.67% and 6.25% and 12.50%. The “Compulsion Subdomain YBOCS % Reduction” value (6 weeks, Responders) was 38.46% and 33.33% (2×) and 29.41% and 52.94% and 25.00% and 58.33% and 50.00% and 18.75% and 53.33% and 40.00% and 16.67%, the “Obsession Subdomain YBOCS % Reduction” value (6 weeks, Responders) was 26.67% and 35.29% and 25.00% (3×) and 31.25% and 33.33% and 23.08% and 20.00% and 29.41% and 28.57% and 15.38% and the “CGI-I Score” value (12 Weeks) was 1 (10×) and 5 (8×) and 4 and 2 (2×). The “YBOCS % Reduction” value (12 Weeks) was 44.00% and 50.00% and 2.50% and −7.14%, the “YBOCS Score” value (12 Weeks) was 21 (2×) and 17 and 28 and 14 (2×) and 16 (3×) and 19 (2×) and 23 and 13 and 25 and 39 and 34 and 30 (2×) and 29 and 15 and 27 and the “average reduction in CGI-I scores for the whole group” value (12 weeks) was 46%. For the same molecule, the “Compulsion Subdomain YBOCS % Reduction” value (12 weeks, Non-Responders) was 7.14% and 0.00% (2×) and −26.67% and −23.08% and 6.67% and 14.29% and 12.50% and −8.33%, the “Obsession Subdomain YBOCS % Reduction” value (12 weeks, Non-Responders) was 16.67% and 14.29% and 5.00% and 0.00% (2×) and −7.69% and −7.14% and 12.50% (2×) and the “Compulsion Subdomain YBOCS % Reduction” value (12 weeks, Responders) was 38.46% and 46.67% (2×) and 41.18% and 58.82% and 45.00% and 58.33% and 64.29% and 43.75% and 53.33% and 33.33% and 41.67%. The “Obsession Subdomain YBOCS % Reduction” value (12 weeks, Responders) was 46.67% and 52.94% and 43.75% (2×) and 44.44% and 33.33% (3×) and 30.77% and 35.29% and 35.71% and 46.15%, the “difference between YBOCS score at baseline and after 12 weeks” value (Non-responders) was 2.9% and the “Compulsion Subdomain YBOCS Score, Mean” value (Week 2, Non-Responders) was 14.78. For the same molecule, the “Obsession Subdomain YBOCS Score, Mean” value (Week 2, Non-Responders) was 14.67, the “Compulsion Subdomain YBOCS Score” value (Week 2, Non-Responders) was 15 and the “Obsession Subdomain YBOCS Score” value (Week 2, Non-Responders) was 12. The “Compulsion Subdomain YBOCS Score, Mean” value (Week 2, Responders) was 11.33, the “Obsession Subdomain YBOCS Score, Mean” value (Week 2, Responders) was 12.58 and the “Compulsion Subdomain YBOCS Score” value (Week 2, Responders) was 11 and 12 (5×) and 10 (3×) and 16 and 5 and 14. For the same molecule, the “Obsession Subdomain YBOCS Score” value (Week 2, Responders) was 12 (4×) and 14 (3×) and 10 and 11 (2×) and 13 and 16, the “Compulsion Subdomain YBOCS Score, Mean” value (Week 4, Non-Responders) was 15.00 and the “Obsession Subdomain YBOCS Score, Mean” value (Week 4, Non-Responders) was 14.44. For the same molecule, the “Compulsion Subdomain YBOCS Score” value (Week 4, Non-Responders) was 15, the “Obsession Subdomain YBOCS Score” value (Week 4, Non-Responders) was 11 and the “Compulsion Subdomain YBOCS Score, Mean” value (Week 4, Responders) was 10.08. The “Obsession Subdomain YBOCS Score, Mean” value (Week 4, Responders) was 11.50, the “Compulsion Subdomain YBOCS Score” value (Week 4, Responders) was 9 (3×) and 11 (2×) and 12 and 14 and 5 and 10 (2×) and 13 and 8 and the “Obsession Subdomain YBOCS Score” value (Week 4, Responders) was 11 (3×) and 13 (4×) and 12 (2×) and 9 and 10 (2×). For the same molecule, the “Compulsion Subdomain YBOCS Score, Mean” value (Week 6, Non-Responders) was 15.00, the “Obsession Subdomain YBOCS Score, Mean” value (Week 6, Non-Responders) was 14.56 and the “Compulsion Subdomain YBOCS Score” value (Week 6, Non-Responders) was 15. The “Obsession Subdomain YBOCS Score” value (Week 6, Non-Responders) was 10, the “Compulsion Subdomain YBOCS Score, Mean” value (Week 6, Responders) was 9.50 and the “Obsession Subdomain YBOCS Score, Mean” value (Week 6, Responders) was 10.83. For the same molecule, the “Compulsion Subdomain YBOCS Score” value (Week 6, Responders) was 8 (2×) and 10 (3×) and 12 and 15 and 5 and 7 (2×) and 13 and 9, the “Obsession Subdomain YBOCS Score” value (Week 6, Responders) was 11 (4×) and 12 (4×) and 9 (2×) and 10 (2×) and the “Compulsion Subdomain YBOCS Score, Mean” value (Week 8, Non-Responders) was 15.22. The “Obsession Subdomain YBOCS Score, Mean” value (Week 8, Non-Responders) was 14.44, the “Compulsion Subdomain YBOCS Score” value (Week 8, Non-Responders) was 13 and the “Obsession Subdomain YBOCS Score” value (Week 8, Non-Responders) was 10. The “Compulsion Subdomain YBOCS Score, Mean” value (Week 8, Responders) was 8.83, the “Obsession Subdomain YBOCS Score, Mean” value (Week 8, Responders) was 10.00 and the “Compulsion Subdomain YBOCS Score” value (Week 8, Responders) was 8 and 9 (2×) and 10 (3×) and 7 and 15 and 5 (2×) and 12 and 6. For the same molecule, the “Obsession Subdomain YBOCS Score” value (Week 8, Responders) was 8 (2×) and 10 (5×) and 12 (3×) and 9 (2×), the “Compulsion Subdomain YBOCS Score, Mean” value (Week 10, Non-Responders) was 15.44 and the “Obsession Subdomain YBOCS Score, Mean” value (Week 10, Non-Responders) was 14.44. For the same molecule, the “Compulsion Subdomain YBOCS Score, Mean” value (Week 10, Responders) was 8.17, the “Obsession Subdomain YBOCS Score, Mean” value (Week 10, Responders) was 9.33 and the “Compulsion Subdomain YBOCS Score” value (Week 10, Responders) was 8 (3×) and 9 and 10 (2×) and 7 and 11 (2×) and 5 (2×) and 6. The “Obsession Subdomain YBOCS Score” value (Week 10, Responders) was 8 (3×) and 10 (4×) and 9 (4×) and 12, the “Compulsion Subdomain YBOCS Score, Mean” value (Week 12, Non-Responders) was 15.22 and the “Obsession Subdomain YBOCS Score, Mean” value (Week 12, Non-Responders) was 14.22. The “Compulsion Subdomain YBOCS Score, Mean” value (Week 12, Responders) was 7.92, the “Obsession Subdomain YBOCS Score, Mean” value (Week 12, Responders) was 8.83 and the “Compulsion Subdomain YBOCS Score” value (Week 12, Responders) was 8 (3×) and 10 (2×) and 7 (3×) and 11 and 5 (2×) and 9. For the same molecule, the “Obsession Subdomain YBOCS Score” value (Week 12, Responders) was 8 (4×) and 9 (4×) and 10 (2×) and 11 and 7, the “Compulsion Subdomain YBOCS Score, Mean” value [1] was 15.00 and the “Obsession Subdomain YBOCS Score, Mean” value [1] was 14.00. For the same molecule, the “Compulsion Subdomain YBOCS Score, Mean” value [2] was 10.67, the “Obsession Subdomain YBOCS Score, Mean” value [2] was 11.25 and the “Compulsion Subdomain YBOCS Score” value [2] was 8 (2×) and 13 (3×) and 11 (3×) and 6 and 12 (2×) and 10. For the same molecule, the “Obsession Subdomain YBOCS Score” value [2] was 9 (2×) and 14 (2×) and 12 (3×) and 13 and 11 (2×) and 8 and 10, the “Compulsion Subdomain YBOCS Score, Mean” value [3] was 14.78 and the “Obsession Subdomain YBOCS Score, Mean” value [3] was 13.67. The “Compulsion Subdomain YBOCS Score, Mean” value [4] was 11.50, the “Obsession Subdomain YBOCS Score, Mean” value [4] was 11.67 and the “Compulsion Subdomain YBOCS Score” value [4] was 8 (2×) and 13 (4×) and 14 and 12 (2×) and 15 and 6 and 11. For the same molecule, the “Obsession Subdomain YBOCS Score” value [4] was 9 (2×) and 15 and 13 and 12 (3×) and 14 (2×) and 8 and 11 (2×), the “overall ondansetron effects for obsessions versus compulsions” value (YBOCS subdomains) was “comparable” and the “reduction in CGI-I from baseline” value (responders, after 12 weeks) was 77%. For the same molecule, the “reduction in YBOCS from baseline” value (responders, after 12 weeks) was 44%.
